# Measurements as given in US5258406A, “Sulfonimidamides” (priority 1992, dated 1993).
# Read-outs that look alike come from different tables or passages of the source.
# What was measured:
# Type in all cases: in vivo
# [1] = system: Lewis Lung Carcinoma; assay: Inhibition of Lewis Lung Carcinoma growth in mice; conditions: IP, DX 10
# Procedure: (§1) The compounds were tested in C3H mice bearing a 6C3HED lymphosarcoma, also known as the Gardner lymphosarcoma (GLS), and in a variety of human tumor xenografts in CD1 nu/nu mice, including CX-1, LX-1, HXGC3, and VRC5. The 6C3HED lymphosarcoma was obtained from the Division of Cancer Treatment, National […] Institute, Tumor Bank, maintained at E. G. and G. Mason Research (Worcester, Mass.). The CX-1 human colon carcinoma and the LX-1 human lung carcinoma xenografts were obtained from the National Cancer Institute. The HXGC3 and VRC5 human colon xenografts were obtained from Dr. P. J. Houghton, St. Jude Children's Hospital in Memphis (see Br. J. Cancer, 37, 213 (1978)). First passage tumor was stored in liquid nitrogen using standard techniques. The transplanted tumor was reestablished from the Tumor Bank every six months or as needed. The tumor was maintained by serial passage twice weekly in C3H mice.
# (§2) In the procedure the tumor was removed from passage animals and minced into 1- to 3-mm square fragments using sterile techniques. Tumor pieces were checked for sterility using both Antibiotic Medium 1 and Brain Heart Infusion (Difco, Detroit, Mich.). Recipient mice were shaved and tumor pieces were implanted subcutaneously in the auxiliary region by trocar. Drug therapy on the appropriate schedule was initiated on the day after tumor implant for 6C3HED and after a seven (7) day delay for xenografts (or other delay as noted in Table 2). The compound being tested was mixed with 2.5% Emulphor EL620 from GAF Corporation (1:40 dilution in saline). Food and water were provided ad libitium. The drug was administered orally in 0.5 ml of 2.5% Emulphor (unless otherwise indicated). The tumor was measured the day after treatment ended with two dimensional measurements (width and length) of the tumor taken using automated digital calipers interfaced to a microcomputer. Approximate weight for the tumor was calculated using the following formula [Worzalla, J. F., et al., Invest. New Drugs, 8, 241 (1990], (tumor weight in mg)=(width in mm)^2 ×(length in mm)/2.
# (§3) At least one control group of an equal number of mice was treated with the same volume of 2.5% Emulphor only. The percent inhibition was determined by subtracting the ratio of the mean tumor size of the test group relative to the control group from one and multiplying the result times 100.
# (§4) The results of several experiments in mice bearing a 6C3HED lymphosarcoma (or other tumor where indicated) when the indicated compounds were administered are provided in Table 2. In Table 2, column 1 gives the Example number of the compound used, column 2 lists the dose level in mg/kg, column 3 provides the percent inhibition of tumor growth, column 4 gives the number of mice which died relative to the total number of animals in the group, column 5 gives the method of administration of the compound, and column 6 gives the dosage schedule. The protocol used with other tumors was the same as with the 6C3HED lymphosarcoma.
# (m) Tumor type Lewis Lung Carcinoma
# [2] = system: M5 Ovarian Carcinoma; conditions: IP, DX 10, from day 5 after implant
# Procedure: as §1, §2, §3, §4
# (n) Tumor type M5 Ovarian Carcinoma
# [3] = system: CA755 adenocarcinoma; conditions: IP, DX 10
# Procedure: as §1, §2, §3, §4
# (h) Tumor type CA755 adenocarcinoma
# [4] = system: GC3; conditions: IP, DX 10
# Procedure: as §1, §2, §3, §4
# [5] = system: MX1; conditions: IP, DX 10
# Procedure: as §1, §2, §3, §4
# [6] = system: B16; conditions: IP, DX 10
# Procedure: as §1, §2, §3, §4
# [7] = system: HC1; conditions: IP, DX 10
# Procedure: as §1, §2, §3, §4
# [8] = system: VRC5
# Procedure: as §1, §2, §3, §4
# [9] = system: LX1; conditions: IP
# Procedure: as §1, §2, §3, §4
# [10] = system: CX1; conditions: IP, DX 10, from day 7 after implant
# Procedure: as §1, §2, §3, §4
# [11] = IP, 7.5 mg/kg, DX 10, from day 7 after implant
# [12] = IP, 15 mg/kg, DX 10, from day 7 after implant
# [13] = IP, 30 mg/kg, DX 10, from day 7 after implant
# [14] = IP, 60 mg/kg, DX 10, from day 7 after implant
# [15] = 3.75 mg/kg, DX 10 (line among ELC2 lines)
# [16] = 3.75 mg/kg, DX 10, from day 7 after implant
# [17] = 7.5 mg/kg, DX 10, from day 7 after implant
# [18] = 15 mg/kg, DX 10, from day 7 after implant
# [19] = 30 mg/kg, DX 10, from day 7 after implant
compound,measurement,setting,value
"Cc1ccc(S(=N)(=O)NC(=O)Nc2ccc(Cl)cc2)cc1C (centres unmarked) [Example 36, N-[[(4-chlorophenyl)amino]carbonyl]-3,4-dimethylbenzenesulfonimidamide]",% inhibition of tumor growth,[1]; 7.5 mg/kg,6%
same,Tox/Tot (mice which died / total),[1]; 7.5 mg/kg,0/10
same,% inhibition of tumor growth,[1]; 15 mg/kg,32%
same,Tox/Tot (mice which died / total),[1]; 15 mg/kg,0/10
same,% inhibition of tumor growth,[1]; 30 mg/kg,34%
same,Tox/Tot (mice which died / total),[1]; 30 mg/kg,0/10
same,% inhibition of tumor growth,[2]; 3.75 mg/kg,10%
same,Tox/Tot (mice which died / total),[2]; 3.75 mg/kg,0/10
same,% inhibition of tumor growth,[2]; 7.5 mg/kg,19%
same,Tox/Tot (mice which died / total),[2]; 7.5 mg/kg,0/10
same,% inhibition of tumor growth,[2]; 15 mg/kg,47%
same,Tox/Tot (mice which died / total),[2]; 15 mg/kg,0/10
same,% inhibition of tumor growth,[2]; 30 mg/kg,38%
same,Tox/Tot (mice which died / total),[2]; 30 mg/kg,1/10
same,% inhibition of tumor growth,[3]; 3.75 mg/kg,26%
same,Tox/Tot (mice which died / total),[3]; 3.75 mg/kg,0/10
same,% inhibition of tumor growth,[3]; 7.5 mg/kg,1%
same,Tox/Tot (mice which died / total),[3]; 7.5 mg/kg,0/10
same,% inhibition of tumor growth,[3]; 15 mg/kg,42%
same,Tox/Tot (mice which died / total),[3]; 15 mg/kg,0/10
same,% inhibition of tumor growth,[3]; 30 mg/kg,72%
same,Tox/Tot (mice which died / total),[3]; 30 mg/kg,0/10
same,% inhibition of tumor growth,[4]; 3.75 mg/kg,6%
same,Tox/Tot (mice which died / total),[4]; 3.75 mg/kg,0/10
same,% inhibition of tumor growth,[4]; 7.5 mg/kg,17%
same,Tox/Tot (mice which died / total),[4]; 7.5 mg/kg,0/10
same,% inhibition of tumor growth,[4]; 15 mg/kg,13%
same,Tox/Tot (mice which died / total),[4]; 15 mg/kg,1/10
same,% inhibition of tumor growth,[4]; 30 mg/kg,12%
same,Tox/Tot (mice which died / total),[4]; 30 mg/kg,9/10
same,% inhibition of tumor growth,[5]; 3.75 mg/kg,5%
same,Tox/Tot (mice which died / total),[5]; 3.75 mg/kg,0/10
same,% inhibition of tumor growth,[5]; 7.5 mg/kg,0%
same,Tox/Tot (mice which died / total),[5]; 7.5 mg/kg,0/10
same,% inhibition of tumor growth,[5]; 15 mg/kg,0%
same,Tox/Tot (mice which died / total),[5]; 15 mg/kg,0/10
same,% inhibition of tumor growth,[5]; 30 mg/kg,12%
same,Tox/Tot (mice which died / total),[5]; 30 mg/kg,4/10
same,% inhibition of tumor growth,[6]; 3.75 mg/kg,0%
same,Tox/Tot (mice which died / total),[6]; 3.75 mg/kg,0/10
same,% inhibition of tumor growth,[6]; 7.5 mg/kg,0%
same,Tox/Tot (mice which died / total),[6]; 7.5 mg/kg,0/10
same,% inhibition of tumor growth,[6]; 15 mg/kg,0%
same,Tox/Tot (mice which died / total),[6]; 15 mg/kg,0/10
same,% inhibition of tumor growth,[6]; 30 mg/kg,9%
same,Tox/Tot (mice which died / total),[6]; 30 mg/kg,0/10
same,% inhibition of tumor growth,[7]; 7.5 mg/kg,1%
same,Tox/Tot (mice which died / total),[7]; 7.5 mg/kg,0/10
same,% inhibition of tumor growth,[7]; 15 mg/kg,24%
same,Tox/Tot (mice which died / total),[7]; 15 mg/kg,0/10
same,% inhibition of tumor growth,[7]; 30 mg/kg,46%
same,Tox/Tot (mice which died / total),[7]; 30 mg/kg,6/10
same,% inhibition of tumor growth,[7]; 60 mg/kg,TOX
same,Tox/Tot (mice which died / total),[7]; 60 mg/kg,10/10
same,% inhibition of tumor growth,[8]; [11],0%
same,Tox/Tot (mice which died / total),[8]; [11],1/10
same,% inhibition of tumor growth,[8]; [12],0%
same,Tox/Tot (mice which died / total),[8]; [12],0/10
same,% inhibition of tumor growth,[8]; [13],44%
same,Tox/Tot (mice which died / total),[8]; [13],4/10
same,% inhibition of tumor growth,[8]; [14],TOX
same,Tox/Tot (mice which died / total),[8]; [14],10/10
same,% inhibition of tumor growth,"[8]; oral, 5 mg/kg, DX 10",0%
same,Tox/Tot (mice which died / total),"[8]; oral, 5 mg/kg, DX 10",0/10
same,% inhibition of tumor growth,"[8]; oral, 10 mg/kg, DX 10",10%
same,Tox/Tot (mice which died / total),"[8]; oral, 10 mg/kg, DX 10",0/10
same,% inhibition of tumor growth,"[8]; oral, 20 mg/kg, DX 10",45%
same,Tox/Tot (mice which died / total),"[8]; oral, 20 mg/kg, DX 10",2/9
same,% inhibition of tumor growth,[9]; [15],0%
same,Tox/Tot (mice which died / total),[9]; [15],0/10
same,% inhibition of tumor growth,[9]; [16],16%
same,Tox/Tot (mice which died / total),[9]; [16],0/10
same,% inhibition of tumor growth,[9]; [17],1%
same,Tox/Tot (mice which died / total),[9]; [17],0/10
same,% inhibition of tumor growth,[9]; [18],18%
same,Tox/Tot (mice which died / total),[9]; [18],1/10
same,% inhibition of tumor growth,[9]; [19],TOX
same,Tox/Tot (mice which died / total),[9]; [19],10/10
same,% inhibition of tumor growth,[10]; 3.75 mg/kg,4%
same,Tox/Tot (mice which died / total),[10]; 3.75 mg/kg,0/10
same,% inhibition of tumor growth,[10]; 7.5 mg/kg,10%
same,Tox/Tot (mice which died / total),[10]; 7.5 mg/kg,0/10
same,% inhibition of tumor growth,[10]; 15 mg/kg,32%
same,Tox/Tot (mice which died / total),[10]; 15 mg/kg,1/10
same,% inhibition of tumor growth,[10]; 30 mg/kg,23%
same,Tox/Tot (mice which died / total),[10]; 30 mg/kg,4/10
